Reference: patent US20150329558A1, “FUSED HETEROCYCLIC COMPOUNDS AS ION CHANNEL MODULATORS” (Gilead Sciences, Inc., priority 2011, published 2015)
Where two headings read alike, the source gives them in different places.

Assays:
[1] = molecular target: wild-type human cardiac sodium channel, hNav1.5 (late INa) (Homo sapiens, UniProt Q14524); assay: Late INa screening assay (QPatch whole cell patch clamp); format: cell-based
Outline: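 HEK293 cells stably expressing hNav1.5 alpha subunit without beta subunits, QPatch automated whole-cell clamp at 23-25° C, CsF-based internal solution pH 7.4. Late INa induced by 10 μM tefluthrin; 250 ms steps to −20 mV from −120 mV at 0.1 Hz, compounds at 1 μM. Percent block of mean current 225–250 ms into the step.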

[2] = molecular target: wild-type human cardiac sodium channel, hNav1.5 (peak INa) (Homo sapiens, UniProt Q14524); assay: Peak INa screening assay (tonic and use-dependent block); format: cell-based
Procedure: The late sodium current (Late INa) and peak sodium current (Peak INa) assays are performed on an automated electrophysiology platform, QPatch 16× (Sophion Bioscience, Copenhagen, Denmark), which uses the whole cell patch clamp technique to measure currents through the cell membrane of up to 16 cells at a time. The assay uses an HEK293 (human embryonic kidney) cell line heterologously expressing the wild-type human cardiac sodium channel, hNav1.5, purchased from Millipore (Billerica, Mass.). No beta subunits were coexpressed with the Na channel alpha subunit. Cells are maintained with standard tissue culture procedures and stable channel expression is maintained with 400 μg/mL Geneticin in the culture medium. […] Experiments are carried out at 23-25° C. For both the Late INa and Peak INa assays, series resistance compensation is set to 100% and series resistance and whole-cell compensation are performed automatically. Currents are digitized at 25 kHz and low-pass filtered at 12 kHz and 10 kHz for the late and peak INa assays, respectively. Currents through open sodium channels are automatically recorded and stored in the Sophion Bioscience Oracle database (Sophion Bioscience, Copehagen, Denmark). Analysis is performed using QPatch Assay and database software and data are compiled in Excel. Compound stocks are routinely made by the Gilead Sample Bank in plastic vials to 10 mM in dimethyl sulfoxide (DMSO). In some cases, when compounds are not soluble in DMSO, they are made in 100% ethanol. Stocks are sonicated as necessary. […] The intracellular solution used to perfuse the inside of the cells for both the Late INa and Peak INa assays contains: 120 mM CsF, 20 mM CsCl, 5 mM EGTA, 5 mM HEPES and pH adjusted to 7.4 with CsOH. Compounds are diluted in extracellular solution to 1 μM in glass vials and then transferred to glass well plates before robotic addition to the cells. […] Compounds were also evaluated for their effect in several other assays, including their effect on Peak INa. Good separation between the concentrations of test compound to reduce late and peak INa is beneficial to enable separation of the desired effect to reduce late INa-induced electrical and mechanical dysfunction from the undesired effect to reduce peak INa, which can lead to slowing or block of conduction of electrical excitation in the heart. It is contemplated that the compounds of Formula I avoid significant block of peak INa. Since the peak INa in the cells used herein can be very large, introducing artifacts in the recording, the concentration of Na^+ in the bath can be reduced to 20 mM and a nonpermeant cation added to compensate for the Na^+ that was removed to maintain the osmolarity and ionic strength of the solution (see solution details below). Analysis of peak INa generally requires correction for rundown before determining the % block of peak current by the tested compound. […] A low stimulation frequency of 0.1 Hz was used to determine the effect of the test compound when the channel spent most of the time in the resting (closed) state and provides information about Tonic Block (TB). A higher stimulation frequency (3 Hz) was used to measure block of the channel when it spent more time in the activated and inactivated states and provided a measure of Use-Dependent Block (UDB). Use-dependent block refers to the accumulation of block with increased frequency of channel activation. Block of cardiac peak INa by compounds of this invention is increased with an increase in the frequency of stimulation from 0.1 to 1-5 Hz (frequencies encountered either in the normal heart or during tachycardia). It is therefore expected that reduction of peak INa by compounds of this invention will be greater at high heart rates, such as those during tachyarrhythmias, than at normal heart rates. […]

[3] = Microsomal stability assay, rat; format: in vitro ADME; conditions: metabolic stability, rat liver microsomes 0.5 mg/mL, substrate 3 uM
Outline: (§1)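 Liver microsomes at 0.5 mg/mL protein in 100 mM KPO4 buffer, incubated with 3 uM compound and NADPH-regenerating system, run in duplicate. Samples taken at 2, 12, 25, 45 and 65 min and quenched in MeOH/ACN/water before analysis.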

[4] = Microsomal stability assay, dog; format: in vitro ADME; conditions: metabolic stability, dog liver microsomes 0.5 mg/mL, substrate 3 uM
Outline: as §1

[5] = Microsomal stability assay, human; format: in vitro ADME; conditions: metabolic stability, human liver microsomes 0.5 mg/mL, substrate 3 uM
Outline: as §1

[6] = percent block of late INa, compound at 1 μM, 10 μM Tefluthrin, HEK293 hNav1.5, read-out: Late INa 1 μM
[7] = tonic block of peak INa, 0.1 Hz, 1 μM, read-out: Peak TB 1 μM
[8] = use-dependent block of peak INa, 3 Hz, 1 μM, read-out: Peak UDB 1 μM

wild-type human cardiac sodium channel, hNav1.5 (late INa), sequence (Q14524 whole entry): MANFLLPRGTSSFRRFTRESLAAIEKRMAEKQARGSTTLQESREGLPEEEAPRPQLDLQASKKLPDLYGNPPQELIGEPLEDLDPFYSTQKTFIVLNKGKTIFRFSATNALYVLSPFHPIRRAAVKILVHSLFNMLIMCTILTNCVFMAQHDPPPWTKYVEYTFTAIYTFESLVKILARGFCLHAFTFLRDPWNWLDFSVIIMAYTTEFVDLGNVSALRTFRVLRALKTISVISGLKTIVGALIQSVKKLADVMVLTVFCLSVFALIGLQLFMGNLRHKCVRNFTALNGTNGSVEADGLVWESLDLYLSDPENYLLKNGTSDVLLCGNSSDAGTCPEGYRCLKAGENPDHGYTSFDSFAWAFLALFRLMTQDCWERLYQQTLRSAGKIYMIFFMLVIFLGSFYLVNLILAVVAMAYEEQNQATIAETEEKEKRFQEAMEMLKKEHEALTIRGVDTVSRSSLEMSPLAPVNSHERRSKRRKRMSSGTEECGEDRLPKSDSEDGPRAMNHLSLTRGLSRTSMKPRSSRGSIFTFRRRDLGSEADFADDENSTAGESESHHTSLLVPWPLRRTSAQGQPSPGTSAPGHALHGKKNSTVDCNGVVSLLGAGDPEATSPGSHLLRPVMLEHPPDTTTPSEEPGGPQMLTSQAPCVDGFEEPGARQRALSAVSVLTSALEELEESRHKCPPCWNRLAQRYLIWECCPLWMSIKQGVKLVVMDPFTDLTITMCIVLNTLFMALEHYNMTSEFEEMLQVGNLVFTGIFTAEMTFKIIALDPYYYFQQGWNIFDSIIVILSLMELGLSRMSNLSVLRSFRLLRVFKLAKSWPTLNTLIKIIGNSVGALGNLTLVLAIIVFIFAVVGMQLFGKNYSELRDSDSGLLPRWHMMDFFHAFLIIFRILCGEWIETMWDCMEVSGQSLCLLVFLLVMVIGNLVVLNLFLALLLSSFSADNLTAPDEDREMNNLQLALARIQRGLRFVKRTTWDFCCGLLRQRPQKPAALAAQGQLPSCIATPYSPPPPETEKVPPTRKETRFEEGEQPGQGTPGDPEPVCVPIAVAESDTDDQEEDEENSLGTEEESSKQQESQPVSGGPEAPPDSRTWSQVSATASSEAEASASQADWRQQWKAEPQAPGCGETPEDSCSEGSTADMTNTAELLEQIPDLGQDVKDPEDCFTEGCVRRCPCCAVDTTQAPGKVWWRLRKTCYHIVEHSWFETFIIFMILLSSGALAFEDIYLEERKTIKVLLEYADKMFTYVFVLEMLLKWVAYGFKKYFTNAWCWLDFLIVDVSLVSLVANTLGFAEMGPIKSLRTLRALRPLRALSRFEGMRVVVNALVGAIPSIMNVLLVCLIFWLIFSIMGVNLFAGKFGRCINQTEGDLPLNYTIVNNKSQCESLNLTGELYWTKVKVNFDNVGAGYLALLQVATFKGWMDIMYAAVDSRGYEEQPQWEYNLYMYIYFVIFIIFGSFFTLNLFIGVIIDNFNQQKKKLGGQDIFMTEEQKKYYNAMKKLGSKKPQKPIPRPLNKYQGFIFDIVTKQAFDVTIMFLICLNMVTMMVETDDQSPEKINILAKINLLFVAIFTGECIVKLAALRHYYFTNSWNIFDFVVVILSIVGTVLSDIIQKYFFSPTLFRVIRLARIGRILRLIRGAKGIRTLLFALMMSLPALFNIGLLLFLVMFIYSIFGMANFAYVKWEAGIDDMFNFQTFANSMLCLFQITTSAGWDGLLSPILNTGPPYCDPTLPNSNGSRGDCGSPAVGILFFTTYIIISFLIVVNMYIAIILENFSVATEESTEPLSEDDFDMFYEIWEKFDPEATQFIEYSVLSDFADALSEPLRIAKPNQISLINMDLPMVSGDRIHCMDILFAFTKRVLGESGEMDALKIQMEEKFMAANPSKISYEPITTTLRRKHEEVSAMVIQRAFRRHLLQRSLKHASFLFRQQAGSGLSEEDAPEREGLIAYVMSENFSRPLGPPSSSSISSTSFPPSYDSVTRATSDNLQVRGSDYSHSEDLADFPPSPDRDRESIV
wild-type human cardiac sodium channel, hNav1.5 (peak INa), sequence (Q14524 whole entry): as above

SMILES | inhibition at 1 µM [1, 6] | inhibition at 1 µM [2, 7] | inhibition at 1 µM [2, 8] | MS Rat THalf [3] | MS Dog THalf [4] | MS Human THalf [5] | inhibition at 1 µM ([1]; % inhibition at 1 μM, read-out: NAv1.5*-LATE-) | inhibition at 1 µM ([2]; % inhibition at 1 μM, tonic block, read-out: NAv1.5*-PEAK-TB-) | inhibition at 1 µM ([2]; % inhibition at 1 μM, use-dependent block 3 Hz, read-out: NAv1.5*-PEAK-UDB-3 HZ-)
O=c1c2cc(-c3ccc(OC(F)(F)F)cc3)ccc2cnn1Cc1nccc(C2CC2)n1 [III-23, 2-((4-cyclopropylpyrimidin-2-yl)methyl)-7-(4-(trifluoromethoxy)phenyl)phthalazin-1 (2H)-one] | 51% | 6% | 12% | 42 min | 209 min | 254 min |  |  | 
Cc1cc(Cn2nnc3ccc(-c4ccc(OC(F)(F)F)cc4)cc3c2=O)no1 [II-26, 3-((5-methylisoxazol-3-yl)methyl)-6-(4-(trifluoromethoxy)phenyl)benzo[d][1,2,3]triazin-4(3H)-one] | 47% | 14% | 5% | 80 min | 67 min | 382 min |  |  | 
O=C1c2cc(-c3ccc(C(F)(F)F)cc3)ccc2SCN1Cc1ncccc1F [Compound X-6, 3-((3-fluoropyridin-2-yl)methyl)-6-(4-(trifluoromethyl)phenyl)-2H-benzo[e][1,3]thiazin-4(3H)-one] | 69% | 35% | 32% | 46 min | 120 min | 38 min |  |  | 
O=c1c2cc(-c3ccc(OC(F)(F)F)cc3)ccc2cnn1CCOc1nccc(C2CC2)n1 [III-29, 2-(2-(4-cyclopropylpyrimidin-2-yloxy)ethyl)-7-(4-(trifluoromethoxy)phenyl)phthalazin-1 (2H)-one] | 58% | 10% | 9% | 26 min | 18 min | 19 min |  |  | 
O=c1c2cc(-c3ccc(OC(F)(F)F)cc3)ccc2cnn1CCOc1ccccn1 [III-40, 2-(2-(pyridin-2-yloxy)ethyl)-7-(4-(trifluoromethoxy)phenyl)phthalazin-1 (2H)-one] | 51% | 4% | 2% | 62 min | 56 min | 152 min |  |  | 
Cc1cnc(Cn2nnc3ccc(-c4ccc(OC(F)(F)F)cc4)cc3c2=O)o1 [II-96, 3-((5-methyloxazol-2-yl)methyl)-6-(4-(trifluoromethoxy)phenyl)benzo[d][1,2,3]triazin-4(3H)-one] | 51% | 10% | 5% | 34 min | 81 min | 84 min |  |  | 
O=c1c2cc(-c3ccc(OC(F)(F)F)cc3)ccc2nnn1Cc1ncc(Cl)cn1 [II-4, 3((5-chloropyrimidin-2-yl)methyl)-6-(4-(trifluoromethoxy)phenyl)benzo[d][1,2,3]triazin-4(3H)-one] | 41% | 9% | 4% | 135 min | 61 min | 270 min |  |  | 
O=c1c2cc(-c3ccc(OC(F)(F)F)cc3)ccc2nnn1Cc1ncccn1 [II-24, 3-(pyrimidin-2-ylmethyl)-6-(4-(trifluoromethoxy)phenyl)benzo[d][1,2,3]triazin-4(3H)-one] | 60% | 19% | 24% | 324 min | 219 min | > 395 min |  |  | 
Cc1noc(Cn2nnc3ccc(-c4ccc(C5CC5)cc4)cc3c2=O)n1 [II-73, 6-(4-cyclopropylphenyl)-3-((3-methyl-1,2,4-oxadiazol-5-yl)methyl)benzo[d][1,2,3]triazin-4(3H)-one] | 45% | 6% | 1% | 29 min | 5 min | 16 min |  |  | 
O=c1c2cc(-c3ccc(OC(F)(F)F)cc3)ccc2nnn1CC1(CO)CC1 [II-75, 3-((1-(hydroxymethyl)cyclopropyl)methyl)-6-(4-(trifluoromethoxy)phenyl)benzo[d][1,2,3]triazin-4(3H)-one] | 53% | 11% | 7% | 75 min | 85 min | 371 min |  |  | 
O=C(c1ncc[nH]1)N1CCc2ccc(-c3ccc(C(F)(F)F)cc3)cc2C1 [IX-57, (1H-imidazol-2-yl)(7-(4-(trifluoromethyl)phenyl)-3,4-dihydroisoquinolin-2(1H)-yl)methanone] | 44% | 10% | 6% | 132 min | 245 min | 159 min | 44% | 10% | 6%
O=C1c2cc(-c3ccc(OC(F)(F)F)cc3)ccc2SCN1Cc1ncccn1 [Compound X-2, 3-(pyrimidin-2-ylmethyl)-6-(4-(trifluoromethoxy)phenyl)-2H-benzo[e][1,3]thiazin-4(3H)-one] | 55% | 14% | 17% | 137 min | 164 min | 142 min |  |  | 
